Assay results published in patent US6710075B2, “Therapeutic compounds and methods” (The Government of the State of Sarawak, Malaysia, priority 2000, dated 2004).
Read-outs that look alike come from different tables or passages of the source.

Key:
[1] = system: HL60 human promyelocytic leukemic cells; experiment: Monocytic differentiation, CD14 surface antigen expression by flow cytometry; type: cell-based; conditions: 4 days
Protocol: This is a morphology highly characteristic of mature macrophages and similar morphological effects were observed when the cells were treated with other known inducers of macrophage differentiation including interferon-γ (IFNγ) or phorbol 12-myristate 13-acetate (PMA). To investigate this further the effects of Compound A on HL60 human promyelocytic leukemic cells (Collins, et al, Nature, 1977, 270:347-9) were examined (Table 11). This widely used cell line is well characterised as a model of human myelomonocytic differentiation (Collins, Blood, 1987, 70(5):1233-44). In this experiment monocytic differentiation was quantitated by measuring CD14 surface antigen expression by flow cytometric analysis CD14, all LPS-binding protein, is expressed on the surface of cells of the myelomonocytic lineage and is normally expressed at very low levels in undifferentiated HL60 cells (Ferrero et al., Blood, 1983, 61(1):171-9).

A549 cells [2] = experiment: Effect on camptothecin- and paclitaxel-induced cytotoxicity, YOYO-1 exclusion; type: cell-based, human; conditions: A549, 10 nM Compound A, 3 days, drugs at up to 2000-fold excess
Protocol: A549 cells in 96 well plates were cultured for 3 days in the presence or absence of 10 nM Compound A together with the indicated concentrations of (A) camptothecin or (B) paclitaxel. Loss of membrane integrity was then assessed by the addition of the fluorescent DNA-binding dye YOYO-1 and the increased fluorescence accompanying cell death measured using a fluorescent plate reader.
To further examine the cell cycle effects of Compound A a cytostatic concentration of this compound was combined together with other anti-cancer agents known to act at specific points in the cell cycle to see if Compound A could perturb their cell cycle-dependent effects. Cell viability was assayed after 3 days by measuring exclusion of the fluorescent DNA-binding dye YOYO-1. (Becker et al., Anal Biochem, 1994, 221(1):78-84). A549 cells were treated with 10 nM non-cytotoxic dose of Compound A in the presence of increasing concentrations of camptothecin and paclitaxel. Camptothecin is an inhibitor of DNA topoisomerase 1, an enzyme required for DNA replication, and results in pertubation of the S phase of the cell cycle with subsequent cell death due to activation of an S phase checkpoint (Darzynkiewicz et al., Ann N Y Acad Sci, 1996, 803:93-100). […]

K562 = experiment: Cytotoxic activity, sub-diploid DNA content by flow cytometry (propidium iodide); type: cell-based, human
Protocol: (§1) (b) Compound A was assessed for cytotoxic and cytostatic activity against a panel of cell lines derived from a variety of human tumour types in addition to THP-1 and A549 cells (Table 5). These included K562 leukemic cells (Lozzio and Lozzio, 1975, Blood 45:321-34), PC3 prostate tumour cells (Kaighn et al., 1979, Invest. Urol. 17:16-23) and SF268 glioblastoma cells (Westphal et al, 1985, Biochem. Biophys. Res. Commun., 132:284-9). […] However, the cytotoxic potency of Compound A increased dramatically after 6 days of culture for the K562, A549 and SF268 cells.

SF268 = experiment: as above; type: cell-based, human; conditions: Homo sapiens, SF-268, 72 h, SF268, 3 days; read-out: LC50 (3 day cultures)
Protocol: as §1

PC3 = experiment: as above; type: cell-based, human; conditions: Homo sapiens
Protocol: as §1

A549 = experiment: as above; type: cell-based, human
Protocol: as §1

THP-1 = experiment: as above; type: cell-based, human; conditions: Homo sapiens, THP-1, 72 h, THP-1, 3 days; read-out: LC50 (3 day cultures)
Protocol: as §1

[3] = system: Tumour Necrosis Factor-α (TNF-α); experiment: Inhibition of TNF-α production by LPS-activated THP-1 cells (sandwich ELISA); type: cell-based, human; conditions: 18 hours
Source text: (a) Compounds A and B were identified from a bark sample of Aglaia leptantha through their ability to inhibit production of Tumour Necrosis Factor-α (TNF-α) by THP-1 human promonocytic leukemia cells (Tsuchiya, et al, Int. J. Cancer, 1980, 26(2):171-6) activated with lipopolysaccharide (LPS). Table 4 summarises the results comparing the activity of Compounds A and B for inhibition of TNF-α production to their effects on general cell metabolism measured using WST-1 reduction, DNA synthesis and protein synthesis assays for THP-1 cells. […] For comparison, the effects of Compounds A and B on A549 lung epithelial carcinoma cells (Leiber et al, Int. J. Cancer, 1976, 17(1)-62-70) were also measured and the data is also included in Table 4.

THP-1 cells = experiment: DNA content analysis (cell cycle and viability) of THP-1 cells; type: cell-based, human; conditions: THP-1, 10 nM, 2 days
Protocol: THP-1 cells were cultured for 2 days with the indicated concentration of Compound A or 1000 nM paclitaxel then collected and fixed in 70% ethanol prior to staining with propidium iodide and DNA content determined by flow cytometry. The numbers indicate the % of cells in the various cell cycle phases relative to all cells with ≧2N DNA content and also the % dead cells (ie. subdiploid≦2N cells) to the left of the marker (the vertical line) that arose during the culture period.

A549 cells [4] = experiment: Senescence-associated β-galactosidase (SA-β-gal) activity staining; type: cell-based, human; conditions: A549, 10-50 nM, 10 days
Protocol: A549 cells were seeded at 10,000 cell/well in 6 well plates in the presence or absence of varying concentrations of Compound A (10-50 nM) or 250 nM doxorubicin for 10 days prior to their processing and staining overnight for senescence-associated β-galactosidase activity as described previously (Dimri et al., 1995, Proc Natl Acad Sci USA 1995 92(20):9363-7). […] PC, phase contrast microscopy. BF, bright field microscopy Magnification×200.
This was evaluated further by measuring senescence-associated β-galactosidase (SA-β-gal) activity, a biomarker previously described to correlate well with senescence of human cells (Dimri et al., Proc Natl Acad Sci USA 1995 92(20):9363-7). […] Therefore, in addition to Compound A A549 cells were also treated with doxorubicin as an experimental control.

SMILES: COC(=O)[C@H]1[C@@H](O)[C@@]2(O)c3c(OC)cc(OC4OC(C(O)CO)COC4OC)cc3O[C@@]2(c2ccc(OC)cc2)[C@@H]1c1ccccc1 (single isomer, unassigned) [Compound A]
- % cells expressing CD14 ([1]; HL60, 5 nM): 3.3%
- % cells expressing CD14 ([1]; HL60, 10 nM): 5.7%
- % cells expressing CD14 ([1]; HL60, 25 nM): 46.0%
- % cells expressing CD14 ([1]; HL60, 50 nM): 43.0%
- CD14 expression in viable HL60 cells ([1]; doses greater than 10 nM): significantly enhanced CD14 expression
- effect on cytotoxicity of camptothecin and paclitaxel (A549 cells [2]): significantly reduced the cytotoxic effects of both camptothecin and paclitaxel
- CC50 (K562; Homo sapiens, K562, 72 h, K562, 3 days, read-out: LC50 (3 day cultures)): > 1000 nM
- CC50 (K562; Homo sapiens, K562, 144 h, K562, 6 days, read-out: LC50 (6 day cultures)): 10 nM
- CC50 (K562; K562, 6 days, read-out: LC50 (6 day cultures)): 12 nM
- CC50 (SF268): 461 nM
- CC50 (PC3; PC-3, 72 h, PC3, 3 days, read-out: LC50 (3 day cultures)): 18 nM
- CC50 (PC3; PC-3, 144 h, PC3, 6 days, read-out: LC50 (6 day cultures)): 12 nM
- CC50 (A549; A549, 6 days, read-out: LC50 (6 day cultures)): 15 nM
- CC50 (A549; Homo sapiens, A549, 72 h, A549, 3 days, read-out: LC50 (3 day cultures)): 914 nM
- CC50 (A549; Homo sapiens, A549, 144 h, A549, 6 days, read-out: LC50 (6 day cultures)): 21 nM
- CC50 (THP-1): 36 nM
- IC50 [3]: 60 nM
- cell cycle phase accumulation (THP-1 cells): caused cells to accumulate in the G0/G1 phases of the cell cycle
- accumulation of dead cells (THP-1 cells; untreated 7%): 17%
- SA-β-gal activity (A549 cells [4]): failed to induce SA-β-gal activity
